Source: US5464861A, “2-thioindoles (selenoindoles) and related disulfides (selenides) which inhibit protein tyrosine kinases and which have antitumor properties” (Warner-Lambert, priority 1993, dated 1995)
Like-named read-outs stand apart in the source and are kept apart here.

Tests used:
[1] = target: T1, human PDGF β receptor intracellular tyrosine kinase domain (Homo sapiens, UniProt P09619); assay: PDGF receptor tyrosine kinase inhibition assay (P^32 incorporation in Glu-Tyr); format: biochemical; details: for inhibition at 100 µM: read-out: % Inhibition at 100 μM (PDGFR TK); for IC50: Table 2, PDGF-R, IC50 entries, read-out: IC50 (PDGFR TK)
T1 construct: human PDGF β receptor intracellular tyrosine kinase domain; made in house; host or cells: SF9 insect cells, recombinant baculovirus; cell lysates used
Method: Recombinant baculovirus containing human PDGF β receptor intracellular tyrosine kinase domain was used to infect SF9 cells to overexpress the protein, and cell lysates were used for the assay. The ability of the tyrosine kinase to phosphorylate glutamate tyrosine substrate in the presence of P^32 -ATP and inhibitor was measured by counting the incorporation of P^32 in Glu-Tyr in TCAprecipitable material.

[2] = target: T2, epidermal growth factor receptor tyrosine kinase (Homo sapiens, UniProt P00533); assay: EGF receptor tyrosine kinase assay (P^32 incorporation in GAT); format: biochemical; details: for inhibition at 100 µM: EGRF-R, read-out: % Inhibition at 100 μM (EGFR TK)
T2 construct: A native 170,000 epidermal growth factor receptor-kinase complex from shed plasma membrane vesicles; endogenous in cells
Method: At the time of assay, membranes were solubilized in 4% Triton X-100 and glycerol. The reaction is carried out in wells of a 96-well microtiter plate in a total volume of […]. Buffer containing 20 mMHepes (pH 7.4), 15 mMMgCl2, mM MnCl2, and 0.02% BSA followed by […] of membrane protein and 150 ng of epidermal growth factor. The plates are incubated for 10 minutes at room temperature to activate the receptor kinase. […] ATP plus or minus compound are added and incubated 10 minutes at room temperature.

[3] = Table 2, EGRF-R, IC50 entries, read-out: IC50 (EGFR TK)

T1 sequence (P09619 554-1106 limits assumed): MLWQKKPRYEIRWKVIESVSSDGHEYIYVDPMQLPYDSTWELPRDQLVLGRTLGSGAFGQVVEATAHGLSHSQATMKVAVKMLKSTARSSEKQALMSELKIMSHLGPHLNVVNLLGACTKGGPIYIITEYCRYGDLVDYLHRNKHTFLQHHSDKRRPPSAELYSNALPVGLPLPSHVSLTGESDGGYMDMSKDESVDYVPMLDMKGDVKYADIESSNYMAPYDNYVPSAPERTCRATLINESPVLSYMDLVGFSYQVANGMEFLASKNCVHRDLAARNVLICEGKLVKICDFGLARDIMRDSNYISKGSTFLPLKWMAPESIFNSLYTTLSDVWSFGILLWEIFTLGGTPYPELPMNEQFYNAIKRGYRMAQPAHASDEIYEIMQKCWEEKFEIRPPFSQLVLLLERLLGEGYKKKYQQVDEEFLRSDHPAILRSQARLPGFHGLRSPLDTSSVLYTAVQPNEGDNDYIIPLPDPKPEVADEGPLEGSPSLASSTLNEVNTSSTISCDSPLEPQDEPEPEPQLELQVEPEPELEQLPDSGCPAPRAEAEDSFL
T2 sequence (P00533 25-1210): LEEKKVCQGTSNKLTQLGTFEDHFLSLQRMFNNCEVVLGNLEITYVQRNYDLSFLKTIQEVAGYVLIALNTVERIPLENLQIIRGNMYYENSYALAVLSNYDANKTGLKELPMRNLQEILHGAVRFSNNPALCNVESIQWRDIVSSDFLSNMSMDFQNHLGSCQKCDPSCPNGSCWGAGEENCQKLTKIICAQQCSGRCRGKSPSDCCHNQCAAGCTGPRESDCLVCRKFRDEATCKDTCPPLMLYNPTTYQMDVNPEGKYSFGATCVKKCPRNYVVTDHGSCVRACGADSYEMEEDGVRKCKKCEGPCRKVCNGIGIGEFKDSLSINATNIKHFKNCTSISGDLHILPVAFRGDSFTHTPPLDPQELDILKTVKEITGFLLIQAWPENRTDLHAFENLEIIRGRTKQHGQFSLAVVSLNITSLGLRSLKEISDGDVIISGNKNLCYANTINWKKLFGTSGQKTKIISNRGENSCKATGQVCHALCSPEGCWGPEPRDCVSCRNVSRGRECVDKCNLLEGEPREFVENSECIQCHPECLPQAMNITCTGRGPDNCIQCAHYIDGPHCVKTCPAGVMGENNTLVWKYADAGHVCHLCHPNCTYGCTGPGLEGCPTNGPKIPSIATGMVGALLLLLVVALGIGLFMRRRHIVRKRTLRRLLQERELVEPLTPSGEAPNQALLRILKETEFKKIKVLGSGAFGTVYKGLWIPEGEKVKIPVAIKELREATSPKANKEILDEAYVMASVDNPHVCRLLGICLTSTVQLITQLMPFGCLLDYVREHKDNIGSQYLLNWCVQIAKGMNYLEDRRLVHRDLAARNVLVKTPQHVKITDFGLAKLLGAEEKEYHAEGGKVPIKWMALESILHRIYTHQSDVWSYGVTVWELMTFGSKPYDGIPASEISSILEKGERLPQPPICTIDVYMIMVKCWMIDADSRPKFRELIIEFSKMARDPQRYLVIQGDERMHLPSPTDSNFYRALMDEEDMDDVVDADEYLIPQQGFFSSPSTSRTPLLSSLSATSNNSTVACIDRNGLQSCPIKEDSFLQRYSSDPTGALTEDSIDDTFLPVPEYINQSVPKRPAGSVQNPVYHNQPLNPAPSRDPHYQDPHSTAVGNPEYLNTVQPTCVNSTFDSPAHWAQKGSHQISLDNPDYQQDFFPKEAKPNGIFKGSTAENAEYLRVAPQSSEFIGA
T2 sequence (P01133 971-1023 partner limits assumed): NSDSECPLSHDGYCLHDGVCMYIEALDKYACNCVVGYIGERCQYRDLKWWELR

Row | SMILES | inhibition at 100 µM ([1]; at 100 μM, PDGF-R) [%] | IC50 [2, 3] [µM] | inhibition at 100 µM [2] [%] | other results
1 | Cn1c(SSc2c(C(=O)Nc3ccccc3)c3cc(C#N)ccc3n2C)c(C(=O)Nc2ccccc2)c2cc(C#N)ccc21 [Compound 88, 2,2'-dithiobis[N-phenyl-5-cyano-1-methylindolyl-3-carboxamide]] | 51 | 54 |  | 
2 | COC(=O)CC1C(=S)Nc2ccccc21 (centres unmarked) [Compound 3, methyl 2-(2-thioxo-3-indolinyl)acetate] | 8.6 |  | 43 | 
3 | Cn1c(SSc2c(C(=O)NCC(=O)O)c3ccccc3n2C)c(C(=O)NCC(=O)O)c2ccccc21 [Compound 112, 2,2'-dithiobis[N-carboxymethyl1-methylindolyl-3-carboxamide]] | 69 | 10 |  | 
4 | Cn1c(SSc2c(C(=O)NCC(O)CO)c3ccccc3n2C)c(C(=O)NCC(O)CO)c2ccccc21 (centres unmarked) [Compound 114, 2,2'-dithiobis [N-(2,3-dihydroxypropyl)-1-methylindolyl-3-carboxamide]] |  | 42.9 |  | IC50 [1]: 7 µM
5 | O=C(CCc1c(SSc2[nH]c3ccccc3c2CCC(=O)NCCc2ccccc2)[nH]c2ccccc12)NCCc1ccccc1 [Compound 54, 2,2'-dithiobis[N-(2-phenylethyl) -3-(3-indolyl)propanamide]] | 20.6 | 29 |  | 
6 | O=C(CC1C(=S)Nc2ccccc21)NCc1ccccc1 (centres unmarked) [Compound 6, N-benzyl (2-thioxo-3-indolinyl) acetamide] | 8.5 | 25 |  | 
7 | N#CCc1c(SSc2[nH]c3ccccc3c2CC#N)[nH]c2ccccc12 [Compound 35, 2,2'-dithiobis[3-indolylacetonitrile]] | 33.9 | 16.5 |  | 
8 | Cn1c(SSc2c(C(=O)Nc3ccccc3)c3cc(F)ccc3n2C)c(C(=O)Nc2ccccc2)c2cc(F)ccc21 [Compound 87, 2,2'-dithiobis [N-phenyl-5-fluoro-1-methylindolyl-3-carboxamide]] | 44 |  | 34 | 
9 | Cn1c(SSc2c(C(=O)Nc3ccccc3)c3cc(C(F)(F)F)ccc3n2C)c(C(=O)Nc2ccccc2)c2cc(C(F)(F)F)ccc21 [Compound 84, 2,2-dithiobis [N-phenyl-1-methyl-5-(trifluoro-methyl)indolyl-3-carboxamide]] | 22 |  | 35 | 
10 | COC(=O)CCCC1C(=S)N(C)c2ccccc21 (centres unmarked) [Compound 18, methyl 4-(1-methyl-2-thioxo-3-indolyl)butanoate] | 9 |  | 2 | 
11 | CN(C(=O)c1c(SSc2c(C(=O)N(C)c3ccccc3)c3ccccc3n2C)n(C)c2ccccc12)c1ccccc1 [Compound 113, 2,2 '-dithiobis [N-methyl-N-phenyl-1-methylindolyl-3-carboxamide]] | 29 |  | 5 | 
12 | Cn1c(SSc2c(C(=O)Nc3ccccc3)c3ccc(Cl)cc3n2C)c(C(=O)Nc2ccccc2)c2ccc(Cl)cc21 [Compound 85, bis[N-phenyl 6-chloro-1-methylindolyl-3-carboxamide-(2)]disulfide] | 7 |  | 8 | 
13 | Cn1c(SSc2c(C(=O)Nc3ccccc3)c3cc([N+](=O)[O-])ccc3n2C)c(C(=O)Nc2ccccc2)c2cc([N+](=O)[O-])ccc21 [Compound 86, 2,2'-dithiobis [N-phenyl-1-methyl-5-nitroindolyl-3-carboxamide]] |  |  |  | inhibition at 100 µM [1]: 5%; IC50 [2]: 4.9 µM
14 | NC(=O)CCc1c(SSc2[nH]c3ccccc3c2CCC(N)=O)[nH]c2ccccc12 [Compound 50] | 62.6 | 16 |  | 
15 | Cn1c(SSc2c(C(=O)Nc3ccncc3)c3ccccc3n2C)c(C(=O)Nc2ccncc2)c2ccccc21 [Compound 116, 2,2'-dithiobis[N-(4-pyridyl)-1-methylindolyl-3-carboxamide]] |  |  | 4 | IC50 [1]: 7.9 µM
16 | Cn1c(SSc2c(C(=O)c3ccccc3)c3ccccc3n2C)c(C(=O)c2ccccc2)c2ccccc21 [Compound 100, bis[3-benzoyl-1-methylindole-(2)]disulfide] |  |  |  | inhibition at 100 µM [1]: 23%
17 | Cn1c(SSc2c(C(=O)Nc3ccccc3)c3c(Cl)cccc3n2C)c(C(=O)Nc2ccccc2)c2c(Cl)cccc21 [Compound 72, bis[N-phenyl 4-chloro-1-methylindolyl-3-carboxamide-(2)] disulfide] | 22 |  | 47 | 
18 | Cn1c(SSc2c(C(=O)Nc3ccc(C(=O)O)cc3)c3ccccc3n2C)c(C(=O)Nc2ccc(C(=O)O)cc2)c2ccccc21 [Compound 105, 2,2'-dithiobis [N-(4'-carboxy)phenyl-1-methylindolyl-3-carboxamide]] | 33 | 16.9 |  | 
19 | Cc1cccc2c(C(=O)Nc3ccccc3)c(SSc3c(C(=O)Nc4ccccc4)c4cccc(C)c4n3C)n(C)c12 [Compound 78, bis [N-phenyl 1,7-dimethyl indolyl-3-carboxamide-(2)]disulfide] | 7 |  | 27 | 

Row | SMILES | inhibition at 100 µM ([1]; at 100 μM, PDGF-R) [%] | IC50 [2, 3] [µM] | inhibition at 100 µM [2] [%] | other results
20 | CN(C)C(=O)c1c(SSc2c(C(=O)N(C)C)c3ccccc3n2C)n(C)c2ccccc12 [Compound 119, 2,2'-dithiobis[N,N-dimethyl-1-methylindolyl-3-carboxamide]] | 73 | 21.2 |  | 
21 | CC(=O)Oc1cccc2c1c(C(=O)Nc1ccccc1)c(SSc1c(C(=O)Nc3ccccc3)c3c(OC(C)=O)cccc3n1C)n2C [Compound 90, 2,2'-dithiobis [N-phenyl 4-acetoxy-1-methylindolyl-3-carboxamide]] |  | 26 |  | IC50 [1]: 36.5 µM
22 | COc1ccc2c(c1)c(C(=O)Nc1ccccc1)c(SSc1c(C(=O)Nc3ccccc3)c3cc(OC)ccc3n1C)n2C [Compound 80, bis[N-phenyl 5-methoxy-1-methylindolyl-3-carboxamide-(2)]disulfide] | 16 |  | 0 | 
23 | Cc1ccc2c(C(=O)Nc3ccccc3)c(SSc3c(C(=O)Nc4ccccc4)c4ccc(C)cc4n3C)n(C)c2c1 [Compound 77, bis [N-phenyl 1,6-dimethylindolyl-3-carboxamide-(2)]disulfide] | 1 |  | 9 | 
24 | Cn1c(SSc2c(C(N)=O)c3ccccc3n2C)c(C(N)=O)c2ccccc21 [Compound 118, 2,2'-dithiobis[1-methylindolyl-3-carboxamide]] | 78 | 4.7 |  | 
25 | COC(=O)CCCc1c(SSc2[nH]c3ccccc3c2CCCC(=O)OC)[nH]c2ccccc12 [Compound 67, bis[methylindolyl-3-butanoate-(2)]-disulfide] | 2 |  | 18 | 
26 | O=C(NCc1ccccc1)C(Cc1c(SSc2[nH]c3ccccc3c2CC(NC(=O)C(F)(F)F)C(=O)NCc2ccccc2)[nH]c2ccccc12)NC(=O)C(F)(F)F (racemic) [Compound 61, 2,2'-dithiobis[N-benzyl-α-trifluoroacetylamino-3-(3-indolyl)propanamide]] | 11 |  | 37 | 
27 | N#CCCc1c(SSc2[nH]c3ccccc3c2CCC#N)[nH]c2ccccc12 [Compound 48, 2,2'-dithiobis[3-indolylpropionitrile]] |  | 35.5 |  | 
28 | NC(=O)CCC1C(=S)Nc2ccccc21 (centres unmarked) [Compound 14, 3-(2-thioxo-3-indolinyl)propanamide] |  | 22 |  | 
29 | Cn1c(SSc2c(C(=O)Nc3ccccc3)c3cc(Br)ccc3n2C)c(C(=O)Nc2ccccc2)c2cc(Br)ccc21 [Compound 89, 2,2'-dithiobis[N-phenyl-5-bromo-1-methylindolyl-3-carboxamide]] | 3 | 11.4 |  | 
30 | COC(=O)c1ccc(C(=O)C2C(=S)N(C)c3ccccc32)cc1 (centres unmarked) [Compound 26, 3-(4'-carbomethoxybenzoyl) -1-methyl-2-indolinethione] |  |  |  | inhibition at 100 µM [1]: 5%
31 | Cn1c(SSc2c(C(=O)Nc3cccnc3)c3ccccc3n2C)c(C(=O)Nc2cccnc2)c2ccccc21 [Compound 117, 2,2'-dithiobis [N-(3-pyridyl) 1-methylindolyl-3-carboxamide]] |  |  | 25 | IC50 [1]: 4.2 µM
32 | Cn1c(S)c(C(=O)Nc2ccccc2)c2cccnc21 [Compound 19, N-phenyl (1-methyl-7-aza-2-thioxo-3-indolinyl)carboxamide] |  |  | 10 | 
33 | CCOC(=O)CCc1c(SSc2[nH]c3ccc(C)cc3c2CCC(=O)OCC)[nH]c2ccc(C)cc12 [Compound 42, bis[ethyl 5-methylindolyl-3-propanoate-(2)]disulfide] |  |  | 26 | 
34 | COC(=O)CC1C(=S)N(C)c2ccccc21 (centres unmarked) [Compound 4, methyl 2-(1-methyl-2-thioxo-3-indolinyl)acetate] |  |  | 27 | 
35 | CNC(=O)CCc1c(SSc2[nH]c3ccccc3c2CCC(=O)NC)[nH]c2ccccc12 [Compound 51] |  | 7 |  | 
36 | O=C(O)CC1C(=S)Nc2ccccc21 (centres unmarked) [Compound 1, 2-(2-thioxo-3-indolinyl)acetic acid] |  | 14.9 |  | 
37 | COC(=O)c1ccc(C(=O)c2c(SSc3c(C(=O)c4ccc(C(=O)OC)cc4)c4ccccc4n3C)n(C)c3ccccc23)cc1 [Compound 102, bis[3-(4'-carbomethoxybenzoyl)-1-methylindole-(2)]disulfide] |  | 6.1 |  | 
38 | Cn1c(SSc2c(C(=O)Nc3ccccc3)c3cccc(Cl)c3n2C)c(C(=O)Nc2ccccc2)c2cccc(Cl)c21 [Compound 74, bis [N-phenyl-7-chloro-1-methylindolyl-3-carboxamide-(2)]disulfide] |  |  | 23 | 
